How the values were obtained:
[1] = absolute recovery over vacuum-assisted evaporative concentration; higher = better recovery; settings: enrichment method: VEC
How it was run: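 Samples of influent (6 mL), effluent (15 mL) and surface or nanopure water (60 mL) were spiked with standards before or after concentration, or left unspiked, at 200 ng/L (nanopure/surface) or 1000 ng/L (wastewater), adjusted by class and compound. Concentration was by evaporation at 55 °C and 20 mbar to about 0.3 mL, followed by adjustment to 0.4 mL and centrifugation. Internal standards were then added for LC-HRMS/MS analysis. Absolute recovery was (response ratio pre − unspiked)/(post − unspiked) × 100, using averages of ≥ 2 replicates.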

[2] = LC retention time (Atlantis T3, 5-95% MeOH gradient, 0.1% formic acid); higher = more retained / less polar
How it was run: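 Retention times refer to reference standards measured by liquid chromatography with high-resolution tandem mass spectrometry. Separation was on an Atlantis T3 C18 column (3 × 150 mm, 3 μm) at 0.3 mL/min with a 5 to 95% methanol gradient over 17.5 min, both solvents carrying 0.1% formic acid. Positive and negative electrospray were run separately on a QExactive Plus, and TraceFinder peak integration (5 ppm tolerance, at least three points per peak) was reviewed by hand.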

[3] = absolute recovery over mixed-bed multilayer solid-phase extraction; higher = better recovery; settings: enrichment method: SPE
How it was run: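 Elution from a three-layer mixed-bed cartridge used basic followed by acidic ethyl acetate/methanol, after loading either 1000 mL of unfiltered nanopure water or 100–250 mL of wastewater that had been set to pH 6.5 and glass-fibre filtered. Standards went in before or after extraction, or were left out, at 200 ng/L (water) or 1000 ng/L (wastewater), with class exceptions. Internal standards were added afterwards, and measurement was by liquid chromatography with high-resolution tandem mass spectrometry in both ionisation modes. For absolute recovery, background-corrected response ratios of pre-spiked samples were compared with those of post-spiked samples and averaged over at least two replicates.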

Row | Compound | absolute recovery ([1]; wastewater effluent) | LC retention time [2] | absolute recovery ([3]; nanopure water) | absolute recovery ([3]; surface water) | absolute recovery ([3]; wastewater effluent) | absolute recovery ([3]; wastewater influent) | absolute recovery ([1]; wastewater influent)
1 | Cc1onc(-c2ccccc2)c1C(=O)NC1C(=O)N2C1SC(C)(C)C2C(=O)[O-] (centres undefined) [Oxacillin] | 91.3% | 18.4 min | 61.2% | 10.8% | 21.2% | 33.4% | –
2 | Cc1cc(O)nc(C(C)C)n1 [Pyrimidinol] | 108% | 11.8 min | 76.8% | 81.4% | 85.3% | 96.4% | 108%
3 | CCOc1ccc(NC(=O)OC(C)C)cc1OCC [Diethofencarb] | 104% | 19.2 min | 98.1% | 103% | 95.6% | 93.8% | 106%
4 | [O-]n1nnc2ccccc21 [1-Hydroxybenzotriazole H] | 126% | 11.6 min | 99.2% | 45.5% | 60.4% | 67.3% | 73%
5 | CC(C)(C)c1n[nH]c(=O)n(N)c1=O [Metribuzin-Diketo (=DK)] | 91.2% | 15.6 min | 94.5% | – | – | – | 96.4%
6 | CSc1nc(N)nc(NC(C)(C)C)n1 [Irgarol-descyclopropyl] | 106% | 16.3 min | 107% | 100% | 101% | 79% | 115%
7 | CCc1cccc2c3c([nH]c12)C(CC)(CC(=O)[O-])OCC3 (centres undefined) [Etodolac] | 103% | 20.8 min | 86.6% | 80.5% | 82.3% | 93.5% | 99.8%
8 | NC(=O)c1ncn(C2OC(CO)C(O)C2O)n1 (centres undefined) [Ribavirin] | 87% | 4.79 min | 33.5% | 30.5% | 33.2% | 37% | 67.6%
9 | COCCOCCOCCOCCOC [Tetraglyme] | 103% | 13.2 min | 80.5% | 83.7% | 83.5% | 99.6% | 112%
10 | COC(=O)c1cccc(C)c1S(=O)(=O)[N-]C(=O)Nc1nc(OCC(F)(F)F)nc(N(C)C)n1 [Triflusulfuron-methyl] | 106% | 19.4 min | 103% | 102% | 93.1% | 90.6% | 108%
11 | CC(=O)OC1C(C)OC(n2cc(F)c(N)nc2=O)C1OC(C)=O (centres undefined) [2-3-di-O-acetyl-5-deoxy-5-fluorocytidin] | 101% | 13.9 min | 102% | 100% | 92.7% | 84.6% | 91.8%
12 | O=C1[N-]S(=O)(=O)c2ccccc21 [Saccharin] | 102% | 11.6 min | 101% | 105% | 95.6% | – | –
13 | COC(=O)C1C(OC(=O)c2ccccc2)CC2CCC1[NH+]2C (centres undefined) [Cocaine] | 71.1% | 12.2 min | 97.2% | 96.4% | 93.8% | 94.5% | 62.2%
14 | CC(O)C(=O)Nc1c(I)c(C(=O)NC(CO)CO)c(I)c(C(=O)NC(CO)CO)c1I (centres undefined) [Iopamidol] | 107% | 7.78 min | 59.6% | 64.5% | 70% | 53% | 103%
15 | CC1(C)C(=O)Oc2ccc(OS(C)(=O)=O)cc21 [Ethofumesat-2-keto] | 101% | 15.2 min | 69.5% | 50.8% | 76.7% | 88.3% | 82.2%
16 | NC1=[NH+]CCN1Cc1ccc(Cl)nc1 [Imidacloprid-desnitro] | 107% | 8.99 min | 113% | 110% | 104% | 106% | 103%
17 | COCCCOc1cc(CC(CC([NH3+])C(O)CC(C(=O)NCC(C)(C)C(N)=O)C(C)C)C(C)C)ccc1OC (centres undefined) [Aliskiren] | 87.1% | 16.7 min | 67% | 82.7% | 68.3% | 72.9% | 91.1%
18 | COCCc1ccc(OCC(O)C[NH2+]C(C)C)cc1 (centres undefined) [Metoprolol] | 107% | 12.3 min | 94.8% | 93.1% | 93.3% | 89.5% | 102%
19 | CCCCOc1ccc(CC(=O)NO)cc1 [Bufexamac] | 93.4% | 17.9 min | 88.6% | 83.9% | 83.3% | 84.7% | 71.9%
20 | CC[NH+](CC)CC(=O)Nc1c(C)cccc1C [Lidocain] | 101% | 11.2 min | 97.1% | 96.5% | 93.5% | 95% | 99.4%
21 | CC(C)[NH+](CCC(C(N)=O)(c1ccccc1)c1ccccn1)C(C)C (centres undefined) [Disopyramide] | 98.1% | 12.2 min | 90% | 94.4% | 92% | 104% | 106%
22 | CC(Oc1ccc(Cl)cc1Cl)C(=O)[O-] (centres undefined) [Dichlorprop] | 104% | 20.1 min | 97.8% | 95.4% | – | 87.9% | 99.8%
23 | O=c1[nH]cc(F)c(=O)[nH]1 [5-Fluorouracil] | 79.1% | 5.37 min | 5% | 7.7% | 7.4% | 9.3% | 69.1%
24 | CCCOc1nc2ccc(I)cc2c(=O)n1CCC [Proquinazid] | 84.4% | 24.6 min | 76.1% | 73.6% | 78% | 65% | 62.4%
25 | CNC(=O)Oc1cccc2c1OC(C)(C)C2 [Carbofuran] | 83.9% | 17 min | 91.7% | 91.3% | 94.7% | 93.5% | 96.7%
26 | C[NH2+]C1(c2ccccc2Cl)CCCCC1=O (centres undefined) [Ketamin] | 101% | 11.7 min | 83.7% | 82.3% | 82.9% | 90.4% | 105%

Row | Compound | absolute recovery ([1]; wastewater effluent) | LC retention time [2] | absolute recovery ([3]; nanopure water) | absolute recovery ([3]; surface water) | absolute recovery ([3]; wastewater effluent) | absolute recovery ([3]; wastewater influent) | absolute recovery ([1]; wastewater influent)
27 | CC(C)(C)C(=O)C(Oc1ccc(Cl)cc1)n1ccnc1 (centres undefined) [Climbazol] | 106% | 16.5 min | 98.6% | 96.1% | 91.7% | 90.1% | 101%
28 | CC(C)[NH2+]CC(O)COc1ccc(CC(=O)[O-])cc1 (centres undefined) [Atenolol-acid (=Metoprolol acid)] | 108% | 10.5 min | 97.3% | 98.9% | 92.1% | 75.4% | 104%
29 | CNC(=O)Oc1cc(C)c(SC)c(C)c1 [Methiocarb] | 67.9% | 19.4 min | 96.3% | 95.4% | 92.7% | 88.7% | 64%
30 | COc1nc(C)nc(N)n1 [2-Amino-4-methoxy-6-methyl-1-3-5-triazin] | 101% | 9.03 min | 102% | 112% | 102% | 102% | 106%
31 | Cc1[nH]c(=O)n(C(C)(C)C)c(=O)c1Cl [Terbacil] | 102% | 17.6 min | 96.1% | 96% | 97.3% | 97.2% | 105%
32 | CCCCc1nc(Cl)c(CO)n1Cc1ccc(-c2ccccc2-c2nn[nH]n2)cc1 [Losartan] | 99.1% | 18.3 min | 85.5% | 85.9% | 80.1% | 88% | 105%
33 | CNC(=O)ON=C(C)SC [Methomyl] | 98.3% | 11.9 min | 82.7% | 77.3% | 79% | 79.3% | 110%
34 | OCC1OC(OC2(CCl)OC(CCl)C(O)C2O)C(O)C(O)C1Cl (centres undefined) [Sucralose] | – | 13.4 min | 95% | – | – | – | 108%
35 | CCCC(C)C1(CC)C(=O)N=C([S-])NC1=O (centres undefined) [Thiopental] | 77.5% | 18.7 min | 49.9% | 83.4% | 66.9% | 73.1% | 82.5%
36 | C[Si](Cn1cncn1)(c1ccc(F)cc1)c1ccc(F)cc1 [Flusilazol] | 114% | 20.4 min | 103% | – | 99.5% | 82.4% | 107%
37 | CCC(C)C(=O)OC1CC(C)C=C2C=CC(C)C(CCC3CC(O)CC(=O)O3)C21 (centres undefined) [Lovastatin] | 107% | 22.2 min | 70.5% | 70.9% | 76.1% | 59.5% | 106%
38 | CC(=O)N1CCN(c2ccc(OCC3COC(Cn4cc[nH+]c4)(c4ccc(Cl)cc4Cl)O3)cc2)CC1 (centres undefined) [Ketoconazol] | 71.5% | 16 min | 80.2% | 62.2% | 66.4% | 85.8% | –
39 | Nc1ccc(S(=O)(=O)[N-]c2nccs2)cc1 [Sulfathiazol] | 99.3% | 10.4 min | 92.4% | 91.4% | 83.6% | 93.6% | 90.4%
40 | Cc1cc(C)cc(OCC2CNC(=O)O2)c1 (centres undefined) [Metaxalone] | 95.8% | 17.8 min | 104% | 85.9% | 87.1% | 87.9% | 99.2%
41 | CC(=O)Nc1c(I)c(C(=O)[O-])c(I)c(C(=O)NCCO)c1I [Ioxitalamic-acid] | 103% | 9.16 min | 59.6% | 65.7% | 76% | 61.4% | 101%
42 | Cc1ccc(C(C)NC(=O)C(NC(=O)OC(C)C)C(C)C)cc1 (centres undefined) [Iprovalicarb] | 89.8% | 20.1 min | 96.4% | 85.1% | 85.2% | 98.8% | 92.3%
43 | COc1cc(C)c(C(=O)c2c(OC)ccc(Br)c2C)c(OC)c1OC [Metrafenone] | 84.4% | 21.4 min | 103% | 92.4% | 85.4% | 117% | 101%
44 | CC(C)c1c(C(=O)Nc2ccccc2)c(-c2ccccc2)c(-c2ccc(F)cc2)n1CCC(O)CC(O)CC(=O)[O-] (centres undefined) [Atorvastatin] | 49.3% | 19.8 min | 31% | 42.7% | 45.5% | 46.5% | 57.8%
45 | Cc1c(N)c(=O)n(-c2ccccc2)n1C [4-Aminopyrin (=4-Aminoantipyrin, 4-AA)] | 84.1% | 9.66 min | 37.8% | 55.7% | 24.6% | 37.4% | 75.5%
46 | CS(=O)(=O)c1ccc(C(=O)[C-]2C(=O)CCCC2=O)c(Cl)c1 [Sulcotrion] | 103% | 16.7 min | 97.7% | 93.4% | 94.8% | 93.9% | 101%
47 | COc1ccc2c(c1)c(CC(=O)[O-])c(C)n2C(=O)c1ccc(Cl)cc1 [Indomethacin] | 104% | 20.8 min | 93.9% | 95% | 91.2% | 91.5% | 98.9%
48 | CC[NH+](CC)CCNC(=O)c1cc(S(C)(=O)=O)ccc1OC [Tiaprid] | 108% | 9.13 min | 90.9% | 94.9% | 90.3% | 94.9% | 103%
49 | COc1cccc2c1C(=O)c1c(O)c3c(c(O)c1C2=O)CC(O)(C(O)CO)CC3OC1CC([NH3+])C(O)C(C)O1 (centres undefined) [Doxorubicinol] | 60.8% | 15.2 min | 70.4% | 75.4% | 73.7% | 79.4% | 65.4%
50 | CC1(C)CC(O)CC(C)(C)[NH+]1CCO [4-Hydroxy-1-(2-hydroxyethyl)-2-2-6-6-tetramethylpiperidine] | 92.4% | 4.55 min | 71.9% | 61.7% | 54.6% | 52.7% | 130%
51 | CCc1ccc(C(=O)NN(C(=O)c2cc(C)cc(C)c2)C(C)(C)C)cc1 [Tebufenozid] | 102% | 20.5 min | 104% | 111% | 98.7% | 103% | 98.1%
